Assay results as given in patent publication US7214690B2, “Tricyclic quinolinone and tricyclic quinoline androgen receptor modulator compounds and methods” (Ligand Pharmaceuticals Incorporated, priority 2001, dated 2007).
Read-outs that look alike come from different tables or passages of the source.

Key:
human AR = target: T1, human AR (Homo sapiens, UniProt P10275); assay: co-transfection assay, hAR in CV-1 cells (MTV-LUC reporter); format: cell-based
T1 construct: expressed in transfected cells; host or cells: CV-1 cells (African green monkey kidney fibroblasts)
T1 sequence (P10275 1-920): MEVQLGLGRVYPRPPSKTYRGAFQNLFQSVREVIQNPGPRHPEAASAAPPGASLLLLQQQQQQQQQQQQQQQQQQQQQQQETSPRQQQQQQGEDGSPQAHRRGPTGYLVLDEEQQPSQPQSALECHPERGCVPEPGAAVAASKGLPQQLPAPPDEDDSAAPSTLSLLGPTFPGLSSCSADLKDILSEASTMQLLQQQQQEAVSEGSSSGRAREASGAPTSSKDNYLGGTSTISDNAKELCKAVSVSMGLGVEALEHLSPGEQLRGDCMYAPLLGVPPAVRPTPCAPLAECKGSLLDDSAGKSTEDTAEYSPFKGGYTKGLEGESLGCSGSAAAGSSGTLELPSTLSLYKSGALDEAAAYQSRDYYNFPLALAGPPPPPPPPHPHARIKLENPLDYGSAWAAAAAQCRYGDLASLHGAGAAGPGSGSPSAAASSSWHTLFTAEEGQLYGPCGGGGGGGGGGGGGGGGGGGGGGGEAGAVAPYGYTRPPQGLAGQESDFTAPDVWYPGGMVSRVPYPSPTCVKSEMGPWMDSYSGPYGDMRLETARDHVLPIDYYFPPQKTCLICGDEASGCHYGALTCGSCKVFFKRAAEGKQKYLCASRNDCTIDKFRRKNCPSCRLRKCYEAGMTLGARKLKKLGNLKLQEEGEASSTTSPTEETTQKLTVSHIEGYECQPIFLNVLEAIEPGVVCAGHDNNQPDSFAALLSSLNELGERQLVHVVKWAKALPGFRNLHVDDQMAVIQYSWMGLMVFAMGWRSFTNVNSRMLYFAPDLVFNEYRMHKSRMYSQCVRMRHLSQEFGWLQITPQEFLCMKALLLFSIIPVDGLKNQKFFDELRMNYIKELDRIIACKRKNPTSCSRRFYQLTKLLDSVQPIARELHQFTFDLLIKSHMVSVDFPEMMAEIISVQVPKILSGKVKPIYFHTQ
From the text: The co-transfection assay provides a method for identifying functional agonists and partial agonists that mimic, or antagonists that inhibit, the effect of native hormones and quantifying their activity for responsive IR proteins. In this regard, the co-transfection assay mimics an in vivo system in the laboratory. Importantly, activity in the co-transfection assay correlates very well with known in vivo activity, such that the co-transfection assay functions as a qualitative and quantitative predictor of a tested compounds in vivo pharmacology. , See e.g., T. Berger et al. 41 J. Steroid Biochem. Molec.
(§1) CV-1 cells (African green monkey kidney fibroblasts) were cultured in the presence of Dulbecco's Modified Eagle Medium (DMEM) supplemented with 10% charcoal resin-stripped fetal bovine serum (CH-FBS) then transferred to 96-well microtiter plates one day prior to transfection.
The reporter plasmid, MTV-LUC, contains the cDNA for firefly luciferase (LUC) under control of the mouse mammary tumor virus (MTV) long terminal repeat, a conditional promoter containing an androgen response element. See e.g., Berger et al. supra. In addition, pRS-β-Gal, coding for constitutive expression of E. coli β-galactosidase (β-Gal), was included as an internal control for evaluation of transfection efficiency and compound toxicity.
(§2) Three to four replicates were used for each sample.
(§3) After 40 hours, the cells were washed with PBS, lysed with a Triton X-100-based buffer and assayed for LUC and β-Gal activities using a luminometer or spectrophotometer, respectively. For each replicate, the normalized response (NR) was calculated as: LUC response/β-Gal rate • where β-Gal rate=β-Gal/β-Gal incubation time.

GR = target: T2, GR (Homo sapiens, UniProt P04150); assay: co-transfection assay, GR; format: cell-based
T2 construct: expressed in transfected cells; host or cells: background cell substantially devoid of endogenous IRs (CV-1 described for the co-transfection assay)
T2 sequence (P04150 1-777): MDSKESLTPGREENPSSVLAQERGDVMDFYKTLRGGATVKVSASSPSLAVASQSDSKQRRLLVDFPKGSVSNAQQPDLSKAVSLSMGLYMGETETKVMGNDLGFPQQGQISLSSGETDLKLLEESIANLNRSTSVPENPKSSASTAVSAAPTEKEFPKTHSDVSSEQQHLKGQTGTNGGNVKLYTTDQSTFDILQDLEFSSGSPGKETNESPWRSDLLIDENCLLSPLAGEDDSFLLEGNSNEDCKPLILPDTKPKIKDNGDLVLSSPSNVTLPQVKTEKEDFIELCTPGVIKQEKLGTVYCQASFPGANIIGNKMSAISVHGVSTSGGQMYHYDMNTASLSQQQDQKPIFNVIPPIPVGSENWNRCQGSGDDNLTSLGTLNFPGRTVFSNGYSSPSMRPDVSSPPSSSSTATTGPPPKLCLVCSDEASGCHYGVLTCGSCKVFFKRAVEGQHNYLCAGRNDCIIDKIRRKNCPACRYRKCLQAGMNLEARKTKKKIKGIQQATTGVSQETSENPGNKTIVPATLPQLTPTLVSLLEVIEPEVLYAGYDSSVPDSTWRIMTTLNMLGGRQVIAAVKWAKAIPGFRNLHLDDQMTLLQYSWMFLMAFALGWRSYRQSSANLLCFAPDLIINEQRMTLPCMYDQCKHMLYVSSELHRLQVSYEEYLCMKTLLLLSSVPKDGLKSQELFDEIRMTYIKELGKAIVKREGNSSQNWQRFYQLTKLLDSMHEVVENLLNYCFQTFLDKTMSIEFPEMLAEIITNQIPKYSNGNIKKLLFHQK
Method: as §1, §2, §3

[1] = agonist mode, luciferase production relative to DHT, hAR in CV-1 cells
[2] = antagonist mode, maximal inhibition of DHT-induced luciferase production, hAR in CV-1 cells
[3] = read-out: AR-wt Potency Antag, antagonist mode, Table 2

CC[C@@H]1COc2c(ccc3[nH]c(=O)cc(C(F)(F)F)c23)N1CC(F)(F)F [Compound 110, (3R)-3-Ethyl-2,3,4,7-tetrahydro-4-(2,2,2-trifluoroethyl)-10-(trifluoromethyl)-8H-[1,4]oxazino[2,3-f]quinolin-8-one]
AR Agonist CV-1 Cells Efficacy (human AR): 89%
AR Antagonist CV-1 Cells Efficacy (human AR): na (key: na: not active (i.e. efficacy of <20 and potency of >10,000 nM for the cotransfection assay)
EC50 (human AR): 0.0006 µM
IC50 (human AR): > 10 µM
IC50 (human AR; read-out: AR-wt Potency Antag): > 10 µM

C=CCN1c2ccc3[nH]c(=O)cc(C(F)(F)F)c3c2OC[C@H]1CC [Compound 114, (3R)-4-Allyl-3-ethyl-2,3,4,7-tetrahydro-10-(trifluoromethyl)-8H-[1,4]oxazino[2,3-f]quinolin-8-one]
IC50 (GR): 5.9 µM
EC50 (human AR): 0.053 µM
AR Agonist CV-1 Cells Efficacy (human AR; [1]): 74%
AR Antagonist CV-1 Cells Efficacy (human AR; [2]): na (not active (i.e. efficacy of <20 and potency of >10,000 nM for the cotransfection assay)
IC50 (human AR; [3]): > 10 µM

CC(C)[C@@H]1COc2c(ccc3[nH]c(=O)cc(C(F)(F)F)c23)N1CC(F)(F)Cl [Compound 124, (3R)-4-(2-Chloro-2,2-difluoroethyl)-2,3,4,7-tetrahydro-3-isopropyl-10-(trifluoromethyl)-8H-[1,4]oxazino[2,3-f]quinolin-8-one]
IC50 (GR): 2.4 µM
EC50 (human AR): 0.002 µM
AR Agonist CV-1 Cells Efficacy (human AR; [1]): 70%
AR Antagonist CV-1 Cells Efficacy (human AR; [2]): na (not active (i.e. efficacy of <20 and potency of >10,000 nM for the cotransfection assay)
IC50 (human AR; [3]): > 10 µM
